Laboratory results reported in a compilation of properties of binary mixtures (doi:10.1016/j.jct.2017.01.014).

Assay: xn = mol fraction of the nth substance listed
Conditions: 100 kPa

CCCC[n+]1ccn(C)c1.O=S(=O)([N-]S(=O)(=O)C(F)(F)F)C(F)(F)F + C=CN1CCCC1=O
x2 = 0
Conditions | speed of sound [m/s]
298.15 K | 1227.9
303.15 K | 1216.8
308.15 K | 1205.8
313.15 K | 1195
318.15 K | 1184.2
323.15 K | 1173.6

C=CN1CCCC1=O + CCCC[n+]1ccn(C)c1.O=S(=O)([N-]S(=O)(=O)C(F)(F)F)C(F)(F)F
speed of sound [m/s]
Conditions | x1 = 0.1377 | x1 = 0.2099 | x1 = 0.3148 | x1 = 0.4117 | x1 = 0.5061 | x1 = 0.6078 | x1 = 0.7032 | x1 = 0.79 | x1 = 0.8989 | x1 = 1
298.15 K | 1241.2 | 1249.4 | 1263 | 1278.3 | 1296.5 | 1321.4 | 1350.7 | 1384.6 | 1442.2 | –
303.15 K | 1229.8 | 1237.8 | 1251.1 | 1266.1 | 1283.9 | 1308.1 | 1336.6 | 1369.6 | 1425.6 | 1502.5
308.15 K | 1218.5 | – | – | 1253.8 | 1271.2 | 1294.7 | 1322.7 | 1354.8 | 1409.1 | 1483.7
313.15 K | 1207.3 | – | 1227.5 | 1241.7 | – | 1281.5 | 1308.7 | 1340 | 1392.8 | 1465
318.15 K | – | 1203.6 | – | 1229.7 | 1246.1 | 1268.4 | 1294.9 | 1325.3 | 1376.5 | –
323.15 K | 1185.3 | – | – | 1217.8 | 1233.8 | 1255.4 | 1281.1 | 1310.5 | 1360.3 | 1428.1
